Patent EP0570112A1, “Cycloalkane derivatives” (ZENECA LIMITED, priority 1992, dated 1993)

Molecular target: T1, 5-LO (Homo sapiens, UniProt P09917)
T1 construct: incubating a test compound with heparinised human blood, prior to challenge with the calcium ionophore A23187; endogenous in cells; host or cells: blood cells of heparinised human whole blood
T1 sequence (P09917 1-674): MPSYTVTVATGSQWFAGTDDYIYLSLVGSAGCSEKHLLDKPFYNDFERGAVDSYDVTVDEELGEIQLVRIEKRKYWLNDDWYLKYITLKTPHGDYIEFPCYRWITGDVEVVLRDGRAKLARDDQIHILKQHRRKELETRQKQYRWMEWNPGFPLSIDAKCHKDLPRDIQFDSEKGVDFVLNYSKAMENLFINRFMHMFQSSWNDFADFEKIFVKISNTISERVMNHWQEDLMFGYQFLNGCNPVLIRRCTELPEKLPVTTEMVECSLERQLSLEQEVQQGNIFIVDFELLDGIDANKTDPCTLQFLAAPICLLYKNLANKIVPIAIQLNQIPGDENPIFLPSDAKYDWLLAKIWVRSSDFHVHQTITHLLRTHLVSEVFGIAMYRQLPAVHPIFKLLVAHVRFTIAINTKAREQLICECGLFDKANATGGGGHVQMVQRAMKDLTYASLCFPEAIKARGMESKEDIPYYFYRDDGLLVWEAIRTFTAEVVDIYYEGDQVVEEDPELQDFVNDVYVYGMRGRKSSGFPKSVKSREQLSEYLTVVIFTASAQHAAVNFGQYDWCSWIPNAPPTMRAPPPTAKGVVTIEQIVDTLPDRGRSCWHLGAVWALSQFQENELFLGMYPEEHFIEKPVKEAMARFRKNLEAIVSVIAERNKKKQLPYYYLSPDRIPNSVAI
Assay: Test a): in vitro heparinised human blood challenged with calcium ionophore A23187, radioimmunoassay of LTB4
Type: cell-based
Settings: A23187 challenge, read-out: IC₅₀ against LTB₄
Description: As stated previously, the compounds of the formula I are inhibitors of the enzyme 5-LO. […] J. Pharmacol. 1985, 84, 34P) which involve the use of a protein-LTB₄ conjugate produced using the procedure of Young et alia (Prostaglandins, 1983, 26(4), 605-613). The effects of a test compound on the enzyme cyclooxygenase (which is involved in the alternative metabolic pathway for arachidonic acid and gives rise to prostaglandins, thromboxanes and related metabolites) may be measured at the same time using the specific radioimmunoassay for thromboxane B₂(TxB₂) described by Carey and Forder (see above). This test provides an indication of the effects of a test compound against 5-LO and also cyclooxygenase in the presence of blood cells and proteins. It permits the selectivity of the inhibitory effect on 5-LO or cyclooxygenase to be assessed. • b) An ex vivo assay system, which is a variation of test a) above, involving administration to a group of rats of a test compound (usually orally as the suspension produced when a solution of the test compound in dimethylsulphoxide is added to carboxymethylcellulose), blood collection, heparinisation, challenge with A23187 and radioimmunoassay of LTB₄ and TxB₂. […]

| IC50 | SMILES |
| --- | --- |
| 40 nM | COC1(OC)CC[C@H](C)[C@H](c2cccc(OCc3ccc4c(ccc(=O)n4C)c3)c2)C1 (racemic) [Example 4, (3RS,4SR)-1,1-dimethoxy-4-methyl-3-[3-(1-methyl-2-oxo-1,2-dihydroquinolin-6-ylmethoxy)phenyl]cyclohexane] |
| 390 nM | COC1CCC(C)C(c2cccc(OCc3ccc4c(ccc(=O)n4C)c3)c2)C1 (centres unmarked) [Example 2, 1-methoxy-4-methyl-3-[3-(1-methyl-2-oxo-1,2-dihydroquinolin-6-ylmethoxy)phenyl]cyclohexane] |
